Measurements reported in patent US20070265451A1, “Process for the preparation of oxazolidinones and method of use thereof” (Board of Trustees of Michigan State University, priority 2001, published 2007).
In brackets after ≈: the same amount, converted by molar mass. Like-named read-outs stand apart in the source and are kept apart here.

Columns and labels:
Format in all cases: cell-based
[1] = tested on: Myeloid bone marrow cells; assay: Bone marrow cell growth inhibition, myeloid
Excerpt: (§1) In general, many of the substituted oxazolidinones were as effective as ZYVOX.

[2] = tested on: Erythroid bone marrow cells; assay: Bone marrow cell growth inhibition, erythroid
Excerpt: as §1

[3] = tested on: Enterococcus faecalis 29212; assay: Broth microdilution MIC, Enterococcus faecalis ATCC 29212; details: for MIC90 / MIC: Enterococcus faecalis; for MIC90: ATCC29213, Table 1, read-out: MIC90-100 EF ATCC 29213; for MIC: ATCC29212, Table 2, read-out: MIC(90-100) EF-ATCC 29212
[4] = tested on: Megakaryocytic bone marrow cells; assay: Bone marrow cell growth inhibition, megakaryocytic
Excerpt: as §1

[5] = tested on: Staphylococcus aureus 29213; assay: Broth microdilution MIC, Staphylococcus aureus ATCC 29213; details: Staphylococcus aureus; for MIC90: ATCC29212, Table 1, SA, strain ATCC 29212, read-out: MIC90-100 SA ATCC 29212; for MIC: ATCC29213, Table 2, read-out: MIC(90-100) SA-ATCC 29213
Excerpt: (§2) See, NCCLS document M7-A5. Methods for Dilution Antimicrobial Susceptibility Tests for Bacteria That Grow Aerobically; Approved Standard-Fifth Edition. Volume 20, Number 2. January 2000, (ISBN 1-56238-394-9) and Lorian V. Antibiotics. Laboratory Medicine. 4th ed. Baltimore: Williams and Wilkins, pp. 52-111 (1996). For subsequent testing, the following strains have been used: Staphylococcus aureus NRS4 (992; HIP5836; New Jersey) (Smith et al., New Engl. J. Med. 340: 493-501 (1999); Tenover et al., J. Clin. Microbiol. 36: 1020-1027 (1998)), Staphylococcus aureus NRS3 (963sm; HIP5827; Michigan) (Smith et al., ibid.; Tenover et al., ibid.), Staphylococcus aureus NRS103 (Becker) (Karakawa and Vann, Sem. Infect. Dis. 4: 285 (1982), Staphylococcus aureus NRS102 (Reynolds) Karakawa and Vann, ibid; McMurray et al., JID 162: 759-762 (1990)), Staphylococcus epidermidis NRS101 (ATCC 35984), Streptococcus pneumoniae (ATCC 49619), Enterococcus faecalis (ATCC 51299), and Staphylococcus aureus (ATCC 43300.
(§3) Stock cultures of these strains were obtained by seeding colonies from overnight streak plates (Tryptic Soy Agar II (TSAII) and 5% sheep's blood (SB) agar plates: Becton Dickinson, CA#2211261) into sterile Mueller-Hinton Broth (MHB)(Becton Dickinson, CA#211443) and growing the suspensions to mid-late log phase in 13 mL screw-cap tubes. Glycerol (Sigma, CA#G-6279) was sterilized by autoclaving for 15 minutes at 121° C. in 6 mL volumes, and then stored at 2-8° C. This was diluted to 20% in dH2O, and then added 1:1 (250 μL:250 μL, 10% final glycerol concentration) to the logarithmically growing bacterial suspension of each strain. Tubes were frozen and stored at −70° C. Purity of the stock cultures was tested by thawing one tube of each strain in a water bath at 37° C. and plating them on TSAII with 5% SB. Plates were incubated overnight at 37° C. and colonies were examined for morphology. Growth curves and approximate CFU/mL were also obtained.
(§4) High purity substituted oxazolidinones prepared according to the method of the present invention and a ZYVOX standard (ZYVOX is a trade name for linezolid available from Pharmacia Corporation) were provided by Synthon Corporation, Monmouth Junction, N.J. Compounds were dissolved at 10 mg/mL in DMSO, as after a dilution of approx. 39.0 to reach the desired final starting concentration of 256 ug/ml, the concentration of DMSO is approximately 2.5%. Compounds were then stored at room temperature (25° C.) in the dark.
(§5) Antimicrobial susceptibility screening was as follows. All compounds were initially screened for activity in duplicate at 256 μg/mL (2.5% DMSO), including ZYVOX, the positive control for antimicrobial activity. A single well of bacterially inoculated 2.5% DMSO served as a positive control for bacterial growth, while a well of DMSO inoculated with of 50 μL of sterile 0.9% saline served as a negative growth control. Controls were prepared on every microplate, so that 46 was the maximum number of compounds that were screened per plate. Broth was pipetted into sterile microcentrifuge tubes, to which the compounds were then added (1:19.53 dilution or 2× final concentration). Each tube was vortexed, and 50 μL was immediately transferred to the microplate wells for each strain. Solubility was assessed by visual observation. MB (medium broth solubility) was recorded if the solution appeared only slightly cloudy. LB (low broth solubility) was recorded if the solution was extremely cloudy, and especially if larger, clumpy precipitates formed. Bacteria were grown as described above, although absorbance was measured at 650 nm and bacteria were diluted to an initial OD of 0.12-0.15. Bacteria were then further diluted 1:100 with 0.9% sterile saline. Within 15 minutes of this final dilution, 50 μL of this suspension was added to each well for a final volume of […], and a final bacterial concentration of 1×10^5 CFU/mL (except for the negative control well). Plates were grown as above and all observations were recorded. […]

[6] = tested on: Staphylococcus aureus NRS3 (963sm; HIP5827; Michigan); assay: Broth microdilution MIC, MR SA Michigan; details: strain Michigan; for MIC90: Staphylococcus aureus, NRS3, methicillin resistant SA, read-out: MIC90-100 MR SA Michigan
Excerpt: as §2, §3, §4, §5

[7] = tested on: Enterococcus faecalis (ATCC 51299); assay: Broth microdilution MIC, Enterococcus faecalis ATCC 51299
Excerpt: as §2, §3, §4, §5

[8] = tested on: Staphylococcus aureus NRS4 (992; HIP5836; New Jersey); assay: Broth microdilution MIC, MR SA New Jersey; details: strain New Jersey; for MIC90: Staphylococcus aureus, NRS4, methicillin resistant SA, read-out: MIC90-100 MR SA New Jersey
Excerpt: as §2, §3, §4, §5

[9] = tested on: Staphylococcus aureus (ATCC 43300); assay: Broth microdilution MIC, MR SA ATCC 43300; details: ATCC43300, methicillin resistant SA, read-out: MIC90-100 MR SA ATCC 43300
Excerpt: as §2, §3, §4, §5

[10] = tested on: Staphylococcus aureus NRS103 (Becker); assay: Broth microdilution MIC, Ref SA Becker; details: strain Becker, read-out: MIC90-100 Ref SA Becker
Excerpt: as §2, §3, §4, §5

[11] = tested on: Staphylococcus aureus NRS102 (Reynolds); assay: Broth microdilution MIC, Pen. R SA Reynolds; details: strain Reynolds, read-out: MIC90-100 Pen. R SA Reynolds
Excerpt: as §2, §3, §4, §5

[12] = ATCC51299, read-out: MIC90-100 VS EF ATCC 51299

SMILES | MIC90 ([3]; EF, strain printed ATCC 29213) [µg/mL] | MIC90 [5] [µg/mL] | MIC90 [6] [µg/mL] | MIC90 [8] [µg/mL] | MIC [5] [µg/mL] | MIC [3] [µg/mL] | MIC90 [10] [µg/mL] | MIC90 [11] [µg/mL] | other results
COc1ccc(C(=O)CN2C[C@@H](COS(=O)(=O)c3ccc(Cl)c4nonc34)OC2=O)cc1 [Compound 207] | 250 (≈ 519 µM) | 64 to 125 (≈ 133 to 259 µM) |  |  |  |  |  |  | IC50 [1]: 0.8 µg/mL (≈ 1.66 µM); IC50 [2]: 0.2 µg/mL (≈ 0.415 µM); IC50 [4]: 3 µg/mL (≈ 6.23 µM)
CC(C)N1C[C@@H](COS(=O)(=O)c2ccc([N+](=O)[O-])cc2)OC1=O [Compound 253] | 250 (≈ 726 µM) | 8 to 16 (≈ 23.2 to 46.5 µM) | 256 (≈ 743 µM) | 256 (≈ 743 µM) | 15.6 (≈ 45.3 µM) |  |  |  | IC50 [1]: 30 µg/mL (≈ 87.1 µM); IC50 [2]: 7 µg/mL (≈ 20.3 µM); MIC90 ([7]; ATCC51299, vancomycin sensitive EF, ATCC 51299, read-out: MIC90-100 VS EF ATCC 51299): > 256 µg/mL; IC50 [4]: 10 µg/mL (≈ 29 µM); MIC90 [9]: > 256 µg/mL
CN(C)C(=O)/C=C/N1C[C@@H](COC(=O)c2csc(-c3ccccc3)n2)OC1=O [Compound 1631] |  |  |  |  | 16 (≈ 39.9 µM) | 16 (≈ 39.9 µM) |  |  | 
CN(C)C(=O)/C=C/N1C[C@@H](COS(=O)(=O)c2ccc([N+](=O)[O-])cc2)OC1=O [Compound 1632] |  |  |  |  | 16 (≈ 40.1 µM) | 64 (≈ 160 µM) |  |  | 
CN1C[C@@H](CNSc2ccc([N+](=O)[O-])cc2)OC1=O [Compound 1687] | 2 (≈ 7.06 µM) | 2 (≈ 7.06 µM) | 2 (≈ 7.06 µM) | 2 (≈ 7.06 µM) |  |  | 3 (≈ 10.6 µM) | 3 (≈ 10.6 µM) | IC50 [1]: 20 µg/mL (≈ 70.6 µM); IC50 [2]: 0.01 µg/mL (≈ 0.0353 µM); IC50 [4]: 6 µg/mL (≈ 21.2 µM)
O=C1O[C@@H](COSc2ccc([N+](=O)[O-])cc2)CN1c1ccc([N+](=O)[O-])cc1 [Compound 1808] | 2 (≈ 5.11 µM) | 4 to 8 (≈ 10.2 to 20.4 µM) | 3 (≈ 7.67 µM) | 4 (≈ 10.2 µM) | 8 (≈ 20.4 µM) | 2 (≈ 5.11 µM) | 16 (≈ 40.9 µM) | 16 (≈ 40.9 µM) | MIC90 [7, 12]: 2 µg/mL (≈ 5.11 µM); MIC90 [9]: 8 µg/mL (≈ 20.4 µM)
O=C(OC[C@H]1CN(c2ccc([N+](=O)[O-])cc2)C(=O)O1)Oc1ccc([N+](=O)[O-])cc1 [Compound 1809] | 4 (≈ 9.92 µM) | 4 to 8 (≈ 9.92 to 19.8 µM) | 3 (≈ 7.44 µM) | 3 (≈ 7.44 µM) | 8 (≈ 19.8 µM) | 4 (≈ 9.92 µM) | 4 (≈ 9.92 µM) | 8 (≈ 19.8 µM) | MIC90 [7, 12]: 2 µg/mL (≈ 4.96 µM); MIC90 [9]: 4 µg/mL (≈ 9.92 µM)
O=C1O[C@@H](COc2cccc3c(O)cccc23)CN1c1ccc([N+](=O)[O-])cc1 [Compound 1960] |  |  |  |  | 32 (≈ 84.1 µM) | 8 (≈ 21 µM) |  |  | 
O=C1O[C@@H](COc2ccc3c4c2CCCN4CCC3)CN1c1ccc([N+](=O)[O-])cc1 [Compound 1965] |  |  |  |  | 32 (≈ 78.2 µM) | 8 (≈ 19.5 µM) |  |  | 
O=C1NCC(COS(=O)(=O)c2ccc([N+](=O)[O-])cc2)O1 (stereo not drawn) [Compound 1985] |  |  |  |  | 8 (≈ 26.5 µM) | 124 (≈ 410 µM) |  |  | 
O=C1NCC(COS(=O)(=O)c2ccc(Cl)cc2[N+](=O)[O-])O1 (stereo not drawn) [Compound 1998] |  |  |  |  | 16 (≈ 47.5 µM) | 64 (≈ 190 µM) |  |  | 
O=C1OC(COSc2ccc([N+](=O)[O-])cc2)CN1Cc1ccc([N+](=O)[O-])cc1 (stereo not drawn) [Compound 2017] |  |  |  |  | 16 (≈ 39.5 µM) | 8 (≈ 19.7 µM) |  |  | 
O=C1OC(COSc2ccc([N+](=O)[O-])cc2)CN1Cc1ccc(Br)cc1 (stereo not drawn) [Compound 2019] |  |  |  |  | 16 (≈ 36.4 µM) | 32 (≈ 72.8 µM) |  |  | 
O=C(OCC1CN(Cc2ccc(Br)cc2)C(=O)O1)Oc1ccc([N+](=O)[O-])cc1 (stereo not drawn) [Compound 2020] |  |  |  |  | 64 (≈ 142 µM) | 124 (≈ 275 µM) |  |  | 
CC(=O)/C=C/N1CC(COSc2ccc([N+](=O)[O-])cc2)OC1=O (stereo not drawn) [Compound 2023] |  |  |  |  | 64 (≈ 189 µM) | 32 (≈ 94.6 µM) |  |  | 
CCOC(=O)/C=C/N1CC(COSc2ccc([N+](=O)[O-])cc2)OC1=O (stereo not drawn) [Compound 2025] |  |  |  |  | 64 (≈ 174 µM) | 32 (≈ 86.9 µM) |  |  | 
O=C1O[C@H](CNSc2ccc([N+](=O)[O-])cc2)CN1c1ccc([N+](=O)[O-])cc1 [Compound 2278] | 2 (≈ 5.12 µM) | 4 (≈ 10.2 µM) | 4 (≈ 10.2 µM) | 4 (≈ 10.2 µM) |  |  | 8 (≈ 20.5 µM) | 8 (≈ 20.5 µM) | 
CCN1C[C@@H](COS(=O)(=O)c2ccc([N+](=O)[O-])cc2)OC1=O [Compound 2405] |  | 2 (≈ 6.05 µM) |  |  |  |  | 4 (≈ 12.1 µM) | 8 (≈ 24.2 µM) | MIC90-100 MR SA Michigan ([6]; methicillin resistant SA): 2 µg/mL (≈ 6.05 µM); MIC90-100 EF ATCC 29213 ([3]; Table 1, EF, strain printed ATCC 29213): 2 µg/mL (≈ 6.05 µM); MIC90-100 MR SA New Jersey ([8]; methicillin resistant SA): 4 µg/mL (≈ 12.1 µM)
CC(C)N1C[C@H](CNSc2ccc([N+](=O)[O-])cc2)OC1=O [Compound 2428] | 4 (≈ 12.8 µM) | 4 (≈ 12.8 µM) | 4 to 8 (≈ 12.8 to 25.7 µM) | 4 to 8 (≈ 12.8 to 25.7 µM) |  |  | 16 (≈ 51.4 µM) | 32 (≈ 103 µM) | 
